Experimental data as given in patent publication US20240376109A1, “PYRAZOLO[1,5-A]PYRIMIDINE COMPOUND FOR THE TREATMENT OF DERMAL DISORDERS” (OTSUKA PHARMACEUTICAL CO., LTD., priority 2021, published 2024).
Where two headings read alike, the source gives them in different places.

Biological target: T1, PAR2 (Homo sapiens, UniProt P55085)
T1 construct: HEK293 cell lines derived from human embryonic kidney cultured in a MEM culture medium; endogenous in cells; host or cells: HEK293
T1 sequence (P55085 26-397): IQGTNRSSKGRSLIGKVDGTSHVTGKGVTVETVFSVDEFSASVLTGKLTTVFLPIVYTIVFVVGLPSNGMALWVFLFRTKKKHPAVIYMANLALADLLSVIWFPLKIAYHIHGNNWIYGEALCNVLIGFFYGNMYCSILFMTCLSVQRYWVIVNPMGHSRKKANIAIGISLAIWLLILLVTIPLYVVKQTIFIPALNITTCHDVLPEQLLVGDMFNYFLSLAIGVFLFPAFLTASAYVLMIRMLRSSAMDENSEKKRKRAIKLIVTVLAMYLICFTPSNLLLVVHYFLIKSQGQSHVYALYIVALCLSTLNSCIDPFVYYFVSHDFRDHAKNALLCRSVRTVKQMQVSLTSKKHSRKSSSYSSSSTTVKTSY
Test: Intracellular calcium concentration measurement (SLIGKV-NH2-induced calcium change, Fluo-8, FDSS/μCELL)
Assay type: cell-based

[1] = HEK293 cells, SLIGKV-NH2 10 μM-induced intracellular calcium change, read-out: IC50

## CCCc1cc(CC2CCCCC2)nc2cc(C(=O)N3CCCCCC3)nn12 [Example 9, azepan-1-yl(5-(cyclohexylmethyl)-7-propylpyrazolo[1,5-a]pyrimidin-2-yl)methanone]
[1]
  IC50: 74 nM

## Cc1cc(CC2CCC(C)CC2)nc2cc(C(=O)N3CCCCCC3)nn12 (stereo not drawn) [Example 20]
[1]
  IC50: 24 nM

## CC1CCC(Cc2cc(C(C)C)n3nc(C(=O)N4CCCCCC4)cc3n2)CC1 (stereo not drawn) [Example 21]
[1]
  IC50: 298 nM

## CC(C)c1cc(C23CC4CC(CC(C4)C2)C3)nc2cc(C(=O)N3CCCCCC3)nn12 [Example 22]
[1]
  IC50: 137 nM

## CC(C)(C)c1cc(C23CC4CC(CC(C4)C2)C3)nc2cc(C(=O)N3CCCCCC3)nn12 [Example 23]
[1]
  IC50: 30 nM

## CC1(C)CCCCN1C(=O)c1cc2nc(C34CC5CC(CC(C5)C3)C4)cc(C(F)(F)F)n2n1 [Example 24]
[1]
  IC50: 9 nM

## O=C(c1cc2nc(CC3CCCCC3)cc(C(F)(F)F)n2n1)N1CCCCCCC1 [Example 25]
[1]
  IC50: 49 nM

## O=C(c1cc2nc(CC34CC5CC(CC(C5)C3)C4)cc(C(F)(F)F)n2n1)N1CCCCCC1 [Example 26]
[1]
  IC50: 80 nM

## O=C(c1cc2nc(CC3CCCCC3)cc(C(F)(F)F)n2n1)N1CCCCCCCC1 [Example 27]
[1]
  IC50: 138 nM

## CC(C)(C)c1cc(CC2CCCCC2)nc2cc(C(=O)N3CCCCCC3)nn12 [Example 28, azepan-1-yl-[7-tert-butyl-5-(cyclohexylmethyl)pyrazolo[1,5-a]pyrimidin-2-yl]methanone]
[1]
  IC50: 60 nM

## O=C(c1cc2nc(CC3CCCCC3)cc(C3CCCC3)n2n1)N1CCCCCC1 [Example 29]
[1]
  IC50: 467 nM

## CC1(C)CCCCN1C(=O)c1cc2nc(CC3CCCC3)cc(C(F)(F)F)n2n1 [Example 30]
[1]
  IC50: 102 nM

## CC1(C)CCCCN1C(=O)c1cc2nc(CC3CCCCC3)cc(C(F)(F)F)n2n1 [Example 31]
[1]
  IC50: 81 nM

## CCC(CC)c1cc(CC2CCCC2)nc2cc(C(=O)N3CCCCCC3)nn12 [Example 33]
[1]
  IC50: 51 nM

## CC(C)c1cc(C2CCCCC2)nc2cc(C(=O)N3CCCCCC3)nn12 [Example 34]
[1]
  IC50: 265 nM

## CCc1cc(CC2CCCCC2)nc2cc(C(=O)N3CCCCC3(C)C)nn12 [Example 35]
[1]
  IC50: 130 nM

## O=C(c1cc2nc(CC3CCCCC3)cc(C3CC3)n2n1)N1CCCCCC1 [Example 36]
[1]
  IC50: 369 nM

## CCC(C)c1cc(CC2CCCC2)nc2cc(C(=O)N3CCCCCC3)nn12 (stereo not drawn) [Example 38]
[1]
  IC50: 102 nM

## CC(C)c1cc(CC2CCCCC2)nc2cc(C(=O)N3CCCCC3(C)C)nn12 [Example 39]
[1]
  IC50: 64 nM

## CC(C)Cc1cc(CC2CCCCC2)nc2cc(C(=O)N3CCCCCC3)nn12 [Example 40]
[1]
  IC50: 184 nM

## O=C(c1cc2nc(CC3CCCC3)cc(C(F)(F)F)n2n1)N1CCCCCCCC1 [Example 41]
[1]
  IC50: 246 nM

## COC1CCN(C(=O)c2cc3nc(CC4CCCCC4)cc(C(C)C)n3n2)C(C)(C)C1 (stereo not drawn) [Example 42]
[1]
  IC50: 40 nM

## CC(C)(C)c1cc(C2CCCCC2)nc2cc(C(=O)N3CCCCCC3)nn12 [Example 43]
[1]
  IC50: 185 nM

## CCCCCc1cc(CC2CCCCC2)nc2cc(C(=O)N3CCCCCC3)nn12 [Example 44]
[1]
  IC50: 208 nM

## CC(C)c1cc(CC2CCC2)nc2cc(C(=O)N3CCCCCC3)nn12 [Example 45]
[1]
  IC50: 632 nM

## CC(C)c1cc(CC2CCCCCC2)nc2cc(C(=O)N3CCCCCC3)nn12 [Example 46]
[1]
  IC50: 99 nM

## CCC(C)c1cc(CC2CCCCC2)nc2cc(C(=O)N3CCCCCC3)nn12 (stereo not drawn) [Example 47]
[1]
  IC50: 146 nM

## CCC(CC)c1cc(CC2CCCCC2)nc2cc(C(=O)N3CCCCCC3)nn12 [Example 48]
[1]
  IC50: 105 nM

## CC(C)c1cc(CC2CCCCCC2)nc2cc(C(=O)N3CCCCC3(C)C)nn12 [Example 49]
[1]
  IC50: 119 nM

## CC(C)c1cc(CC2CCCCC2)nc2cc(C(=O)N3CCSCC3(C)C)nn12 [Example 50]
[1]
  IC50: 43 nM

## CC(C)c1cc(CC2CCCC2)nc2cc(C(=O)N3CCCCCCC3)nn12 [Example 51]
[1]
  IC50: 209 nM

## CC(C)c1cc(CC2CCCCC2)nc2cc(C(=O)N3CCCCCCC3)nn12 [Example 52]
[1]
  IC50: 107 nM

## O=C(c1cc2nc(C3CCC(F)(F)CC3)cc(C(F)(F)F)n2n1)N1CCCCCC1 [Example 56]
[1]
  IC50: 283 nM

## CC1(c2cc(C(F)(F)F)n3nc(C(=O)N4CCCCCC4)cc3n2)CCCCC1 [Example 57]
[1]
  IC50: 308 nM

## CCCCC1CCC(c2cc(C(F)(F)F)n3nc(C(=O)N4CCCCCC4)cc3n2)CC1 (stereo not drawn) [Example 58]
[1]
  IC50: 464 nM

## O=C(c1cc2nc(C3CCCCCC3)cc(C(F)(F)F)n2n1)N1CCCCCC1 [Example 60]
[1]
  IC50: 234 nM

## CC1(C)CCCCCN1C(=O)c1cc2nc(C34CC5CC(CC(C5)C3)C4)cc(C(F)(F)F)n2n1 [Example 61]
[1]
  IC50: 96 nM

## CC1(C)COCCN1C(=O)c1cc2nc(C34CC5CC(CC(C5)C3)C4)cc(C(F)(F)F)n2n1 [Example 62]
[1]
  IC50: 52 nM

## COC1CCN(C(=O)c2cc3nc(C45CC6CC(CC(C6)C4)C5)cc(C(F)(F)F)n3n2)C(C)(C)C1 (stereo not drawn) [Example 63]
[1]
  IC50: 12 nM

## CC(C)c1cc(C23CC4CC(CC(C4)C2)C3)nc2cc(C(=O)N3CCC(O)CC3(C)C)nn12 (stereo not drawn) [Example 64]
[1]
  IC50: 17 nM

## CC1(C)COCCN1C(=O)c1cc2nc(CC3CCCCC3)cc(C(F)(F)F)n2n1 [Example 66]
[1]
  IC50: 241 nM

## CC1(C)CSCCN1C(=O)c1cc2nc(C3CCCC3)cc(C(F)(F)F)n2n1 [Example 67]
[1]
  IC50: 174 nM

## CCC(CC)c1cc(CC2CCCC2)nc2cc(C(=O)N3CCCC(=O)C3(C)C)nn12 [Example 68]
[1]
  IC50: 15 nM

## CCCCCCc1cc(CC2CCCCC2)nc2cc(C(=O)N3CCCCCC3)nn12 [Example 69]
[1]
  IC50: 286 nM

## CCC(CC)c1cc(CC2CCCCC2)nc2cc(C(=O)N3CCC(O)CC3(C)C)nn12 (stereo not drawn) [Example 73]
[1]
  IC50: 33 nM

## CC(C)c1cc(CCC2CCCCC2)nc2cc(C(=O)N3CCSCC3(C)C)nn12 [Example 74]
[1]
  IC50: 386 nM

## CCC(C)c1cc(CC2CCCC2)nc2cc(C(=O)N3CCCCC3(C)C)nn12 (stereo not drawn) [Example 75]
[1]
  IC50: 89 nM

## CC(C)c1cc(CC2CCCCC2)nc2cc(C(=O)N3CCOCC3(C)C)nn12 [Example 76]
[1]
  IC50: 121 nM

## CC(F)(F)c1cc(CC2CCCCC2)nc2cc(C(=O)N3CCCCCC3)nn12 [Example 77]
[1]
  IC50: 273 nM

## CCC(C)c1cc(CC2CCCC2)nc2cc(C(=O)N3CCCCCCC3)nn12 (stereo not drawn) [Example 78]
[1]
  IC50: 247 nM

## CCC(CC)c1cc(CC2CCCC2)nc2cc(C(=O)N3CCCCCCC3)nn12 [Example 79]
[1]
  IC50: 145 nM

## CC(C)c1cc(CC2CCCC2)nc2cc(C(=O)N3CCC=CCC3)nn12 [Example 80]
[1]
  IC50: 250 nM

## CC(C)c1cc(CC2CCCCC2)nc2cc(C(=O)N3CCC=CCC3)nn12 [Example 81]
[1]
  IC50: 246 nM

## O=C(c1cc2nc(NC34CC5CC(CC(C5)C3)C4)cc(C(F)(F)F)n2n1)N1CCCCCC1 [Example 82]
IC50 (nM)
  IC50: 76 nM

## O=C(c1cc2nc(C3C4CC5CC(C4)CC3C5)cc(C(F)(F)F)n2n1)N1CCCCCC1 (stereo not drawn) [Example 84]
[1]
  IC50: 274 nM

## O=C(c1cc2nc(C34CCC(CC3)CC4)cc(C(F)(F)F)n2n1)N1CCCCCC1 [Example 85]
[1]
  IC50: 310 nM

## CC(C)c1cc(COC2CCCC2)nc2cc(C(=O)N3CCCCC3(C)C)nn12 [Example 86]
[1]
  IC50: 338 nM

## CCCN(CCC)c1cc(CC2CCCCC2)nc2cc(C(=O)N3CCCCCC3)nn12 [Example 89, azepan-1-yl-[5-(cyclohexylmethyl)-7-(dipropylamino)pyrazolo[1,5-a]pyrimidin-2-yl]methanone]
IC50 (nM)
  IC50: 243 nM

## CC(C)c1cc(CC2CCCCC2)nc2cc(C(=O)N3CCCCCO3)nn12 [Example 91]
[1]
  IC50: 522 nM

## CC(C)c1cc(C(C)C2CCCCC2)nc2cc(C(=O)N3CCCCCC3)nn12 (stereo not drawn) [Example 93]
[1]
  IC50: 236 nM

## O=C(c1cc2nc(N3CCCCC3)cc(C(F)(F)F)n2n1)N1CCCCCC1 [Example 95]
[1]
  IC50: 742 nM

## CC1(C)C(=O)CCCN1C(=O)c1cc2nc(C34CC5CC(CC(C5)C3)C4)cc(C(F)(F)F)n2n1 [Example 96]
[1]
  IC50: 10 nM

## CC(C)c1cc(C23CC4CC(CC(C4)C2)C3)nc2cc(C(=O)N3CCCC(O)C3(C)C)nn12 (stereo not drawn) [Example 97]
[1]
  IC50: 20 nM

## CC(C)c1cc(CC2(C)CCCCC2)nc2cc(C(=O)N3CCCCCC3)nn12 [Example 98]
[1]
  IC50: 270 nM

## Cc1cc(CC2CCCCC2)nc2cc(C(=O)N3CCCCC3(C)C)nn12 [Example 99]
[1]
  IC50: 336 nM

## CC1(C)C(O)CCCN1C(=O)c1cc2nc(C34CC5CC(CC(C5)C3)C4)cc(C(F)(F)F)n2n1 (stereo not drawn) [Example 100]
[1]
  IC50: 23 nM

## CC(C)(C)c1cc(C23CC4CC(CC(C4)C2)C3)nc2cc(C(=O)N3CCNCC3(C)C)nn12 [Example 101]
[1]
  IC50: 70 nM

## CC1(C)CC(O)CCN1C(=O)c1cc2nc(C34CC5CC(CC(C5)C3)C4)cc(C(F)(F)F)n2n1 (stereo not drawn) [Example 102]
[1]
  IC50: 37 nM

## CC(C)c1cc(CC2CCCC2)nc2cc(C(=O)N3CCCC(=O)C3(C)C)nn12 [Example 103]
[1]
  IC50: 63 nM

## CCC(CC)c1cc(CC2CCCC2)nc2cc(C(=O)N3CCCC(O)C3(C)C)nn12 (stereo not drawn) [Example 104]
[1]
  IC50: 46 nM

## CCC(CC)c1cc(CC2CCCC2)nc2cc(C(=O)N3CCC(O)CC3(C)C)nn12 (stereo not drawn) [Example 106]
[1]
  IC50: 96 nM

## CC(C)c1cc(CC2CCCCC2)nc2cc(C(=O)N3CCCC(C)(O)C3(C)C)nn12 (stereo not drawn) [Example 107]
[1]
  IC50: 67 nM

## CC1(C)CSCCN1C(=O)c1cc2nc(CC3CCCC3)cc(C(F)(F)F)n2n1 [Example 108]
[1]
  IC50: 78 nM

## CC1CCC(Cc2cc(C(C)C)n3nc(C(=O)N4CCCCC4(C)C)cc3n2)CC1 (stereo not drawn) [Example 109]
[1]
  IC50: 85 nM

## CC1(C)C(O)CCCN1C(=O)c1cc2nc(C3CCCCC3)cc(C(F)(F)F)n2n1 (stereo not drawn) [Example 111]
[1]
  IC50: 250 nM
